± gives the expanded uncertainty stated by the source.
Experiment: wn = mass fraction of the nth substance listed
Conditions: 298.15 K; for surface tension liquid-gas: Pendant drop shape; for mass density / viscosity: 101 kPa, Liquid; for mass density: Vibrating tube method

CCOS(=O)(=O)[O-].CCn1cc[n+](C)c1 [1-ethyl-3-methylimidazolium ethyl sulfate] + O
Conditions	mass density [kg/m3]	surface tension liquid-gas [mN/m]	viscosity [mPa·s]
w2 = 0.000475	1236.26 ± 8.3	47 ± 1.2	91.85 ± 45
w2 = 0.00754	1234.51 ± 8.2	47.23 ± 1.2	83.6 ± 35
w2 = 0.0144	1233.93 ± 8.1	48.01 ± 1.3	70.21 ± 19
w2 = 0.02531	1231.35 ± 7.8	48.08 ± 1.3	65.61 ± 14
w2 = 0.03047	1230 ± 7.7	48.09 ± 1.2	55.78 ± 5.1
w2 = 0.03849	1227.15 ± 7.6	47.93 ± 1.2	41.85 ± 7.8
w2 = 0.04185	1228.01 ± 7.5	48.14 ± 1.2	33.3 ± 6.2
w2 = 0.05643	1226.3 ± 7.3	47.95 ± 1.2	30.63 ± 5.7
w2 = 0.06937	1222.45 ± 7	48.25 ± 1.2	24.8 ± 4.6
w2 = 0.07519	1219.51 ± 6.9	48.97 ± 1.2	23.63 ± 4.4
w2 = 0.09292	1215.44 ± 6.6	49.35 ± 1.2	17.41 ± 3.3
w2 = 0.09493	1214.98 ± 6.6	50.11 ± 1.2	14.73 ± 2.8
